Where two headings read alike, the source gives them in different places.
Columns and labels:
LXFS 615 SCLC PDX model = assay type: in vivo, mice; settings: female, NMRI-Foxnlnu, mouse, oral; 5 mg base/kg, plasma after final dose; read-out: AUC0-24
[1] = system: LXFS 615 SCLC patient-derived xenograft; assay: LXFS 615 SCLC PDX model; assay type: in vivo, mice
hERG potassium channel = hERG potassium channel (Homo sapiens (Human), UniProt Q12809)
CYP2D6 = CYP2D6 (Homo sapiens (Human), UniProt P10635); assay: CYP inhibition in pooled human liver microsomes, CYP2D6; assay type: in vitro ADME; settings: up to 50 μM
in vivo = settings: Beagle, dog, po; for AUC(0-t): AUC0-96
[2] = Hemodynamic and ECG parameters in anesthetized guinea pigs; assay type: in vivo, Dunkin Hartley guinea pigs; settings: for concentration at 10 min: male, Dunkin Hartley, plasma, read-out: mean plasma concentration at end of infusion
Source text: Animals were monitored throughout the experiment.

MS-1 hMCC xenograft = assay type: in vivo; settings: 5 mg/kg PO 5 on/2 off
[3] = system: LU2527 lung NEC patient-derived xenograft; assay type: in vivo
[4] = Excretion in bile duct cannulated rats; assay type: in vivo; settings: IV, 24-hour period
CYP3A4 = CYP3A4 (Homo sapiens (Human), UniProt P08684); assay: CYP inhibition in pooled human liver microsomes, CYP3A4; assay type: in vitro ADME
[5] = Plasma protein binding, human
muscarinic M1 receptor = muscarinic M1 receptor (Homo sapiens (Human), UniProt P11229); assay: CEREP in vitro pharmacology panel, muscarinic M1 receptor
[6] = system: gene expression in MKL-1 and MS-1 hMCC cell lines; assay: RNA-seq modulation of gene expression in cultured hMCC cells; assay type: cell-based, human; settings: 10 and 100 nM
Experimental: The modulation of gene expression by Compund A for a panel of human genes was determined by culturing MKL-1 or MS-1 cells (Sigma-Aldrich, St. Louis, Mo.) for three days in the presence of 0, 10, or 100 nM Compund A and extracting total RNA for assessment by RNA-seq.
Libraries were sequenced on an Illumina NextSeq® 500 System (Illumina, San Diego, Calif.) using 75 base paired-end RNA sequencing. Sequenced reads were mapped to the hg19 human genome build and differential expression was determined by analysis of variance across all replicates relative to the vehicle control.
Sequenced reads were mapped to the hg19 human genome build using the Spliced Transcripts Alignment to a Reference (STAR) software tool (©Alexander Dobin, 2009-2016) and transcript counts were normalized using the Empirical Analysis of Digital Gene Expression Data in R (edgeR) and Differential gene expression analysis based on the negative binomial distribution (DESeq2) software tools (©Bioconductor, 2003-2017). Differential expression was determined by analysis of variance across all replicates relative to the vehicle control.

[7] = 4-week toxicity study with 4-week recovery in mice (incl. TK)
[8] = system: Salmonella typhimurium TA98 and TA100 strains; assay: Bacterial reverse mutation assay; settings: up to 500 μg/mL, presence and absence of S9
P-gp (MDR1) = P-gp (MDR1) (Homo sapiens (Human), UniProt P08183); assay: Permeability in MDR1-MDCK cells; assay type: in vitro ADME
LNCaP cells = assay: LNCaP cell proliferation with DHT and irradiation; assay type: cell-based, human; settings: 10 nM DHT + 100 nM Compound A + 2Gy irradiation vs DHT + irradiation or DHT + Compound A, 220 hours
Experimental: LNCaP cells are androgen-sensitive human prostate adenocarcinoma cells. […] The proliferation of the LNCap cells was monitored for 220 hours.

[9] = Day 1, 5 mg base/kg/dose oral, 5 days on/2 days off, F
[10] = Day 1, 5 mg base/kg/dose oral, 5 days on/2 days off, M
[11] = Day 1, 15 mg base/kg/dose oral, 5 days on/2 days off, M
[12] = Day 1, 25 mg base/kg/dose oral, QODx3/week, F
[13] = Day 1, 25 mg base/kg/dose oral, QODx3/week, M
[14] = Day 1, 45 mg base/kg/dose oral, 5 days on/2 days off, F
[15] = Day 1, 45 mg base/kg/dose oral, 5 days on/2 days off, M
[16] = Day 26, 5 mg base/kg/dose oral, 5 days on/2 days off, F
[17] = Day 26, 5 mg base/kg/dose oral, 5 days on/2 days off, M
[18] = Day 26, 15 mg base/kg/dose oral, 5 days on/2 days off, F
[19] = Day 26, 25 mg base/kg/dose oral, QODx3/week, F
[20] = Day 26, 25 mg base/kg/dose oral, QODx3/week, M
[21] = Day 26, 45 mg base/kg/dose oral, 5 days on/2 days off, F
[22] = Day 26, 45 mg base/kg/dose oral, 5 days on/2 days off, M

P-gp (MDR1), sequence (P08183 whole entry): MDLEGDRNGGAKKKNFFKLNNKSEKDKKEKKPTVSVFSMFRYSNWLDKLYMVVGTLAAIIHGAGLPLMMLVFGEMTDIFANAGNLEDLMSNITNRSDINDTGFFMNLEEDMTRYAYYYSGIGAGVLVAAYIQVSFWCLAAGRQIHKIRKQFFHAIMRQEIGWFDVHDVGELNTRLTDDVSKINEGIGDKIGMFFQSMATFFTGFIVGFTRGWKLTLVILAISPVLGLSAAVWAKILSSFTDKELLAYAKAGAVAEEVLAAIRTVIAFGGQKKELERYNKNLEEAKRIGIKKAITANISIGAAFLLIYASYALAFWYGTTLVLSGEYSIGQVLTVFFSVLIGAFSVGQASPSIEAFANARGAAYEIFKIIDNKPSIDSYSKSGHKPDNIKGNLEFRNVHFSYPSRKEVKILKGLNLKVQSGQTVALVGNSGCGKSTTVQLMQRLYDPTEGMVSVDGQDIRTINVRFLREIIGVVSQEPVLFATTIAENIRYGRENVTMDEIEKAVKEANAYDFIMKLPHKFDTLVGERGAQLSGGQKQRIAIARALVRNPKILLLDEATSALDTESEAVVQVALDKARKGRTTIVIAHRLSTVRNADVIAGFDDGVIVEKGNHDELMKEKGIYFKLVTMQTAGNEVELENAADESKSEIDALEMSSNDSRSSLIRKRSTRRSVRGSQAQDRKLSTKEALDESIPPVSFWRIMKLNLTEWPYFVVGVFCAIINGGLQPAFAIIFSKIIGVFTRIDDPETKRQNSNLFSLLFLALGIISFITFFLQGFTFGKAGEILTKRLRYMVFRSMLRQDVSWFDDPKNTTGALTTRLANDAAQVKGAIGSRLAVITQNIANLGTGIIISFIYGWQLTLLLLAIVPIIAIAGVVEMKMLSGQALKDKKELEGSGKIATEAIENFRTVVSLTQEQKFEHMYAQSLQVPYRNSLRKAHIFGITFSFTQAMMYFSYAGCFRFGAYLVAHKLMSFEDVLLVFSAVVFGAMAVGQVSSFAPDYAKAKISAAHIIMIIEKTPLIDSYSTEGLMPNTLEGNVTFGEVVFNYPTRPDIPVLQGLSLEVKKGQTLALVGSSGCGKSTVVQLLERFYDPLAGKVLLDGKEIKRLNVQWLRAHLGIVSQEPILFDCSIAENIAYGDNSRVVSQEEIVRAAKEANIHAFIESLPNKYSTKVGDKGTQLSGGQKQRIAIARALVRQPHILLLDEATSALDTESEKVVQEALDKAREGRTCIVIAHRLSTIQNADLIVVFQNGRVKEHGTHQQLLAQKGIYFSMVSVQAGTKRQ
muscarinic M1 receptor, sequence (P11229 whole entry): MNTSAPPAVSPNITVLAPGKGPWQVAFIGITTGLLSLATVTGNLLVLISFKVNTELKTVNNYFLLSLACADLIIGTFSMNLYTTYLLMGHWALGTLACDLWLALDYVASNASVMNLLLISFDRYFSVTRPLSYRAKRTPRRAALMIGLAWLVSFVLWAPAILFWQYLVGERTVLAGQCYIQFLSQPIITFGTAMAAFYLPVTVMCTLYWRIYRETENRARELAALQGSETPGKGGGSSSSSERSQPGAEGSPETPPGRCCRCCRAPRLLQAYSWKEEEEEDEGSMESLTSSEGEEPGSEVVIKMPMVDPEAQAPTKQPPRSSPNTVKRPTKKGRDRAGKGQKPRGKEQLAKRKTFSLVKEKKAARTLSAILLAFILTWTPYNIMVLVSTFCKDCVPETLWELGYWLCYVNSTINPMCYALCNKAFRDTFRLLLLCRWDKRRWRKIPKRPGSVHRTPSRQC
CYP3A4, sequence (P08684 whole entry): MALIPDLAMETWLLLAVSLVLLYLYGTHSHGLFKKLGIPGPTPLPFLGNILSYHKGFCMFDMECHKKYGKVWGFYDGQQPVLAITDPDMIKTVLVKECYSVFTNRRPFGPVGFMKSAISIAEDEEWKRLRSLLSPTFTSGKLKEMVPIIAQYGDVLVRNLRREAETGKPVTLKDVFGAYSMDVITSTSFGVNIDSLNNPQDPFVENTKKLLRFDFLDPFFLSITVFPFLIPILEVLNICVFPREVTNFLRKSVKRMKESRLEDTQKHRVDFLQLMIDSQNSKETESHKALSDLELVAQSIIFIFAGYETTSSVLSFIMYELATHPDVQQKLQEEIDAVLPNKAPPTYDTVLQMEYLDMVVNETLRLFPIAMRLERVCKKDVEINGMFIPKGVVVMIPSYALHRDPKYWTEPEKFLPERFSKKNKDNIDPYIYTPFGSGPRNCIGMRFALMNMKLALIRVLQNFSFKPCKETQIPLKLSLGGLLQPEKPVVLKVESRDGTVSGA
CYP2D6, sequence (P10635 whole entry): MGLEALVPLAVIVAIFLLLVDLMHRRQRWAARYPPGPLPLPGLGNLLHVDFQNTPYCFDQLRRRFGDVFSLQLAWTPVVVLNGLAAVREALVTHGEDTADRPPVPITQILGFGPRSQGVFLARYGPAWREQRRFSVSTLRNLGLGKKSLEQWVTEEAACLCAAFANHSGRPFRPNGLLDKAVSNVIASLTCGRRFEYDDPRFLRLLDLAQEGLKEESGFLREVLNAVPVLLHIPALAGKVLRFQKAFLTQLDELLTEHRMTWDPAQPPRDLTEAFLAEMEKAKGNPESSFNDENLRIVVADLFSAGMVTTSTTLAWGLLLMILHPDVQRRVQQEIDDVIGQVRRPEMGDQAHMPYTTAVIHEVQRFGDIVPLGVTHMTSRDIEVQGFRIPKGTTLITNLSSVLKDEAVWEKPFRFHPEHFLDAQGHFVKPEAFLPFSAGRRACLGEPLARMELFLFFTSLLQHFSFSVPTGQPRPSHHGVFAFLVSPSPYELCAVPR
hERG potassium channel, sequence (Q12809 whole entry): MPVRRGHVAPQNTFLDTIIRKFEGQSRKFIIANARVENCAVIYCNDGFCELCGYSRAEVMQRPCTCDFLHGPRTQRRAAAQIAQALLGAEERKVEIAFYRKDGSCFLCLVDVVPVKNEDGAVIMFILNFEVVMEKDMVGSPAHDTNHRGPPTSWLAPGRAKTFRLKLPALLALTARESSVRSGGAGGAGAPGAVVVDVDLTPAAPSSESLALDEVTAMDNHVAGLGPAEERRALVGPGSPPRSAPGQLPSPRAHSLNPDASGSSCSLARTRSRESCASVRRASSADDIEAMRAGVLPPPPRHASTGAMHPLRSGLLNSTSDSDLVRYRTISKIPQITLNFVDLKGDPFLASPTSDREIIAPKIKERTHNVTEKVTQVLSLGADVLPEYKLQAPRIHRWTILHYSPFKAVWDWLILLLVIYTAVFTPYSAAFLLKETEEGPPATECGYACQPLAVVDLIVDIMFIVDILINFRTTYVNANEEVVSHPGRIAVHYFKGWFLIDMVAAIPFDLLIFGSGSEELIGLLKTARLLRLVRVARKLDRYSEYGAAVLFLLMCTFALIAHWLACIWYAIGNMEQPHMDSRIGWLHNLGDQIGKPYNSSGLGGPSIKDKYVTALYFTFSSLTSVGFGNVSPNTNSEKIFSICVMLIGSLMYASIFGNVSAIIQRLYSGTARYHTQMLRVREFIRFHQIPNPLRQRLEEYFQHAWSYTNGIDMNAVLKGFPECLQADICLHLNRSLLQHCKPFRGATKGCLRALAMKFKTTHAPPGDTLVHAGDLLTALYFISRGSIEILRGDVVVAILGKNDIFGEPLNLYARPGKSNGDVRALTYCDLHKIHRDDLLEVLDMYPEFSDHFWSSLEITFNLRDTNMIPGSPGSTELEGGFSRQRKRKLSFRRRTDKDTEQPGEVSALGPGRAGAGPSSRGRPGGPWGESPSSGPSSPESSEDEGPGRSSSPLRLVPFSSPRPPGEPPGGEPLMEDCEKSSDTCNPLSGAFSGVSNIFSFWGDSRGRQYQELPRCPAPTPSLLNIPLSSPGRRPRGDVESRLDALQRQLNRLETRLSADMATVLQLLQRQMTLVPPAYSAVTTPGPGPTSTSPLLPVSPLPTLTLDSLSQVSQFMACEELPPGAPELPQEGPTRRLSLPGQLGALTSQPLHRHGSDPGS

SMILES: COc1ccc(-c2c(-c3ccc(C#N)c(F)c3)nc(N3CCC(N)CC3)n(C)c2=O)cc1F [Compound A, 4-[2-(4-amino-piperidin-1-yl)-5-(3-fluoro-4-methoxy-phenyl)-1-methyl-6-oxo-1,6-dihydro-pyrimidin-4-yl]-2-fluoro-benzonitrile]
- AUC(0-t) (LXFS 615 SCLC PDX model): 1620 ng·h/mL
- mean body weight loss ([1]; 5 mg base/kg): < 1%
- TGI ([1]; 5 mg base/kg oral for 30 days): 78%
- Hill coefficient (hERG potassium channel): 1.2
- direct inhibition of CYP2D6 (CYP2D6): little to no direct inhibitory effect
- AUC(0-t) (in vivo; both, 0.125 mg/kg): 127 ng·h/mL
- Cmax (in vivo; both, 0.125 mg/kg, Cmax): 5.26 ng/mL
- Cmax (in vivo; both, 0.125 mg/kg, combined Day 15 mean Cmax): 5.26 ng/mL
- Cmax (in vivo; both, 0.25 mg/kg, combined Day 15 mean Cmax): 11 ng/mL
- Cmax (in vivo; both, 0.5 mg/kg, combined Day 15 mean Cmax): 22 ng/mL
- AUC(0-t) (in vivo; both): 120 ng·h/mL
- Cmax (in vivo; both, Cmax): 5.79 ng/mL
- AUC(0-t) (in vivo; female, 0.25 mg/kg): 343 ng·h/mL
- Cmax (in vivo; female, 0.25 mg/kg, Cmax): 12.1 ng/mL
- AUC(0-t) (in vivo; female, 0.5 mg/kg): 729 ng·h/mL
- Cmax (in vivo; female, 0.5 mg/kg, Cmax): 26.6 ng/mL
- AUC(0-t) (in vivo; female): 141 ng·h/mL
- AUC(0-t) (in vivo; male, 0.25 mg/kg): 335 ng·h/mL
- Cmax (in vivo; male, 0.25 mg/kg, Cmax): 11.9 ng/mL
- AUC(0-t) (in vivo; male, 0.5 mg/kg): 762 ng·h/mL
- Cmax (in vivo; male, 0.5 mg/kg, Cmax): 24 ng/mL
- AUC(0-t) (in vivo; male): 107 ng·h/mL
- maximum increase of QTcB interval vs vehicle ([2]; 10 mg base/kg IV): approximately 9%
- maximum increase of QTcB interval vs vehicle ([2]; 15 mg base/kg IV): ~13%
- maximum increase of QTcB interval vs vehicle ([2]; 20 mg base/kg IV): ~16%
- maximum suppression of HR vs vehicle ([2]; 20 mg base/kg IV, 9 minutes into infusion): 19%
- NOAEL for hemodynamic and ECG endpoints ([2]; IV): 10 mg base/kg
- HR decrease at end of monitoring period ([2]; after 20 mg base/kg IV): 18%
- QTcB interval increase at end of monitoring period ([2]; guinea pig, in vivo): 10%
- concentration at 10 min ([2]; guinea pig, 5 mg base/kg IV): 1170 ng/mL
- concentration at 10 min ([2]; guinea pig, 10 mg base/kg IV): 2360 ng/mL
- concentration at 10 min ([2]; guinea pig, 15 mg base/kg IV): 4270 ng/mL
- concentration at 10 min ([2]; guinea pig, 20 mg base/kg IV): 6710 ng/mL
- Median Tumor Volume Day 36 (MS-1 hMCC xenograft): 129 mm^3
- Median Tumor Volume Diff (Day 36 - Day -3) (MS-1 hMCC xenograft): 80 mm^3
- Median Tumor Volume Day 46 ([3]; 5 mg/kg PO QD x 46): 329.7 mm^3
- Median Tumor Volume Diff (Day 46 - Day 0) ([3]; 5 mg/kg PO QD x 46): 177.9 mm^3
- % TGI ([3]; 5 mg/kg PO QD x 46, Day 46): 84%
- TGI ([3]; 5 mg/kg oral QD for 46 days): 84%
- tolerability ([3]; 1.5 and 5 mg/kg oral QD): acceptably tolerated
- dose excreted intact (urine + bile) [4]: 26.3 % of the dose
- dose excreted intact in bile [4]: 17.8 % of dose
- dose excreted intact in urine [4]: 8.5 % of dose
- IC50 (CYP3A4): > 50 µM
- bound to plasma proteins [5]: 83%
- Ki (muscarinic M1 receptor): 1.6 µM
- inhibition at 10 µM (muscarinic M1 receptor; read-out: inhibition of ligand binding): 76%
- downregulated genes with expression changes in both hMCC lines at both concentrations (of 4303) ([6]; 3 days, MKL-1 and MS-1): 17
- upregulated genes with expression changes in both hMCC lines at both concentrations (of 3803) ([6]; 3 days, MKL-1 and MS-1): 172
- ST18 and FREM2 gene expression change (upregulated) ([6]; both hMCC lines): at least 2 fold
- AUC0-24 [7, 9]: 1500 ng·h/mL
- Cmax [7, 9]: 201 ng/mL
- AUC0-24 [7, 10]: 2270 ng·h/mL
- Cmax [7, 10]: 230 ng/mL
- AUC0-24 [7, 11]: 13000 ng·h/mL
- Cmax [7, 11]: 1020 ng/mL
- AUC0-24 [7, 12]: 20300 ng·h/mL
- Cmax [7, 12]: 1830 ng/mL
- AUC0-24 [7, 13]: 21900 ng·h/mL
- Cmax [7, 13]: 1530 ng/mL
- AUC0-24 [7, 14]: 36300 ng·h/mL
- Cmax [7, 14]: 3570 ng/mL
- AUC0-24 [7, 15]: 35200 ng·h/mL
- Cmax [7, 15]: 3130 ng/mL
- AUC0-24 [7, 16]: 2410 ng·h/mL
- Cmax [7, 16]: 276 ng/mL
- AUC0-24 [7, 17]: 2010 ng·h/mL
- Cmax [7, 17]: 276 ng/mL
- AUC0-24 [7, 18]: 8640 ng·h/mL
- Cmax [7, 18]: 769 ng/mL
- AUC0-24 [7, 19]: 17500 ng·h/mL
- Cmax [7, 19]: 1740 ng/mL
- AUC0-24 [7, 20]: 17800 ng·h/mL
- Cmax [7, 20]: 1450 ng/mL
- AUC0-24 [7, 21]: 26500 ng·h/mL
- Cmax [7, 21]: 2130 ng/mL
- AUC0-24 [7, 22]: 29000 ng·h/mL
- Cmax [7, 22]: 2620 ng/mL
- NOAEL ([7]; QD×5/week schedule): 5 mg base/kg/dose
- STD10 ([7]; QD×5/week schedule): > 45 mg base/kg/dose
- STD10 ([7]; QOD×3 weekly schedule): > 25 mg base/kg/dose
- mutagenicity [8]: negative for mutagenicity
- Papp A→B (P-gp (MDR1)): 0.5 ×10⁻⁶ cm/s
- Papp B→A (P-gp (MDR1)): 16.5 ×10⁻⁶ cm/s
- LNCaP cell proliferation (LNCaP cells): significantly inhibits LNCaP cell proliferation

— US10328077B2 (CELGENE CORPORATION, priority 2016, dated 2019)
